Reference: ChEMBL document CHEMBL4229518, “New β-lactam - Tetramic acid hybrids show promising antibacterial activities” (Bioorg Med Chem Lett, 2018)
Values after ≈ are worked out from the molar mass of the structure shown.

Tests used:
Type in all cases: functional
[1] = system: Bacillus subtilis; assay: Antimicrobial activity against Bacillus subtilis ATCC 23857 after 18 to 20 hrs by microbroth dilution method
[2] = system: Bacillus anthracis; assay: Antimicrobial activity against Bacillus anthracis Sterne 34F2 after 18 to 20 hrs by microbroth dilution method
[3] = system: Bacillus cereus; assay: Antimicrobial activity against Bacillus cereus ATCC 14579 after 18 to 20 hrs by microbroth dilution method
[4] = system: Enterococcus faecalis; assay: Antimicrobial activity against Enterococcus faecalis ATCC 33186 after 18 to 20 hrs by microbroth dilution method
[5] = system: Staphylococcus aureus; assay: Antimicrobial activity against methicillin-susceptible Staphylococcus aureus ATCC 29213 after 18 to 20 hrs by microbroth dilution method
[6] = system: Staphylococcus aureus; assay: Antimicrobial activity against methicillin-susceptible Staphylococcus aureus NRS70 after 18 to 20 hrs by microbroth dilution method
[7] = system: Streptococcus pneumoniae; assay: Antimicrobial activity against Streptococcus pneumoniae R6 after 18 to 20 hrs by microbroth dilution method
[8] = system: Streptococcus pyogenes; assay: Antimicrobial activity against Streptococcus pyogenes ATCC 700294 after 18 to 20 hrs by microbroth dilution method; conditions: M1 GAS
[9] = system: Acinetobacter baumannii; assay: Antimicrobial activity against Acinetobacter baumannii ATCC 19606 after 18 to 20 hrs by microbroth dilution method; conditions: ATCC 19606 = CIP 70.34 = JCM 6841
[10] = system: Enterobacter cloacae; assay: Antimicrobial activity against Enterobacter cloacae ATCC 13047 after 18 to 20 hrs by microbroth dilution method; conditions: subsp. cloacae ATCC 13047
[11] = system: Escherichia coli; assay: Antimicrobial activity against Escherichia coli BW25113 after 18 to 20 hrs by microbroth dilution method
[12] = system: Escherichia coli; assay: Antimicrobial activity against tolC deficient Escherichia coli JW5503-1 after 18 to 20 hrs by microbroth dilution method
[13] = system: Klebsiella pneumoniae; assay: Antimicrobial activity against Klebsiella pneumoniae ATCC 33495 after 18 to 20 hrs by microbroth dilution method
[14] = system: Pseudomonas aeruginosa; assay: Antimicrobial activity against Pseudomonas aeruginosa PAO1 after 18 to 20 hrs by microbroth dilution method
[15] = system: Proteus mirabilis; assay: Antimicrobial activity against Proteus mirabilis ATCC 25933 after 18 to 20 hrs by microbroth dilution method
[16] = system: Stenotrophomonas maltophilia; assay: Antimicrobial activity against Stenotrophomonas maltophilia ATCC 700475 after 18 to 20 hrs by microbroth dilution method
[17] = system: Klebsiella pneumoniae; assay: Antimicrobial activity against Klebsiella pneumoniae isolate SJ 1 after 18 to 20 hrs by microbroth dilution method
[18] = system: Klebsiella pneumoniae; assay: Antimicrobial activity against Klebsiella pneumoniae isolate SJ 2 after 18 to 20 hrs by microbroth dilution method
[19] = system: Klebsiella pneumoniae; assay: Antimicrobial activity against Klebsiella pneumoniae isolate SJ 3 after 18 to 20 hrs by microbroth dilution method
[20] = system: Klebsiella pneumoniae; assay: Antimicrobial activity against Klebsiella pneumoniae isolate SJ 4 after 18 to 20 hrs by microbroth dilution method
[21] = system: Klebsiella pneumoniae; assay: Antimicrobial activity against Klebsiella pneumoniae isolate SJ 5 after 18 to 20 hrs by microbroth dilution method
[22] = system: Escherichia coli; assay: Antimicrobial activity against Escherichia coli isolate SJ 1 after 18 to 20 hrs by microbroth dilution method
[23] = system: Escherichia coli; assay: Antimicrobial activity against Escherichia coli isolate SJ 2 after 18 to 20 hrs by microbroth dilution method
[24] = system: Escherichia coli; assay: Antimicrobial activity against Escherichia coli isolate SJ 3 after 18 to 20 hrs by microbroth dilution method
[25] = system: Escherichia coli; assay: Antimicrobial activity against Escherichia coli isolate SJ 4 after 18 to 20 hrs by microbroth dilution method
[26] = system: Escherichia coli; assay: Antimicrobial activity against Escherichia coli isolate SJ 5 after 18 to 20 hrs by microbroth dilution method
[27] = system: Escherichia coli; assay: Antimicrobial activity against Escherichia coli isolate SJ 6 after 18 to 20 hrs by microbroth dilution method
[28] = system: Escherichia coli; assay: Antimicrobial activity against Escherichia coli ATCC 35218 expressing TEM-1 beta lactamases after 18 to 20 hrs by microbroth dilution method
[29] = system: Escherichia coli; assay: Antimicrobial activity against Escherichia coli ATCC 25922 after 18 to 20 hrs by microbroth dilution method

## CC1(C)S[C@@H]2[C@H](NC(=O)[C@H](N)c3ccccc3)C(=O)N2[C@H]1C(=O)O [AMPICILLIN]
[1]
  MIC: < 0.2 µg/mL
[2]
  MIC: < 0.2 µg/mL
[3]
  MIC: 25 µg/mL (≈ 71.5 µM)
[4]
  MIC: 0.78 µg/mL (≈ 2.23 µM)
[5]
  MIC: < 0.2 µg/mL
[6]
  MIC: 25 µg/mL (≈ 71.5 µM)
[7]
  MIC: < 0.2 µg/mL
[8]
  MIC: < 0.2 µg/mL
[9]
  MIC: 50 µg/mL (≈ 143 µM)
[10]
  MIC: > 200 µg/mL
[11]
  MIC: 3.13 µg/mL (≈ 8.96 µM)
[12]
  MIC: 1.56 µg/mL (≈ 4.46 µM)
[13]
  MIC: 100 µg/mL (≈ 286 µM)
[14]
  MIC: 200 µg/mL (≈ 572 µM)
[15]
  MIC: < 0.2 µg/mL
[16]
  MIC: 6.25 µg/mL (≈ 17.9 µM)
[17]
  MIC: > 200 µg/mL
[18]
  MIC: 25 µg/mL (≈ 71.5 µM)
[19]
  MIC: 100 µg/mL (≈ 286 µM)
[20]
  MIC: 100 µg/mL (≈ 286 µM)
[21]
  MIC: > 200 µg/mL
[22]
  MIC: > 200 µg/mL
[23]
  MIC: > 200 µg/mL
[24]
  MIC: > 200 µg/mL
[25]
  MIC: > 200 µg/mL
[26]
  MIC: > 200 µg/mL
[27]
  MIC: > 200 µg/mL
[28]
  MIC: > 200 µg/mL
[29]
  MIC: 3.13 µg/mL (≈ 8.96 µM)

## CC1=C(C(=O)O)N2C(=O)[C@@H](NC(=O)CCNC(=O)C3=C(O)C(CC(C)C)NC3=O)[C@H]2SC1 (stereo partly specified)
[1]
  MIC: 100 µg/mL (≈ 214 µM)
[2]
  MIC: 200 µg/mL (≈ 429 µM)
[3]
  MIC: > 200 µg/mL
[4]
  MIC: > 200 µg/mL
[5]
  MIC: 50 µg/mL (≈ 107 µM)
[6]
  MIC: 100 µg/mL (≈ 214 µM)
[7]
  MIC: 200 µg/mL (≈ 429 µM)
[8]
  MIC: > 200 µg/mL
[9]
  MIC: > 200 µg/mL
[10]
  MIC: > 200 µg/mL
[11]
  MIC: > 200 µg/mL
[12]
  MIC: > 200 µg/mL
[13]
  MIC: > 200 µg/mL
[14]
  MIC: > 200 µg/mL
[15]
  MIC: > 200 µg/mL
[16]
  MIC: > 200 µg/mL

## CC(C)CC1NC(=O)C(C(=O)NCCCCCC(=O)N[C@@H](C(=O)N[C@@H]2C(=O)N3[C@@H]2SC(C)(C)[C@@H]3C(=O)O)c2ccccc2)=C1O (stereo partly specified)
[1]
  MIC: 3.13 µg/mL (≈ 4.86 µM)
[2]
  MIC: 3.13 µg/mL (≈ 4.86 µM)
[3]
  MIC: 50 µg/mL (≈ 77.7 µM)
[4]
  MIC: 25 µg/mL (≈ 38.8 µM)
[5]
  MIC: 0.78 µg/mL (≈ 1.21 µM)
[6]
  MIC: 50 µg/mL (≈ 77.7 µM)
[7]
  MIC: < 0.2 µg/mL
[8]
  MIC: < 0.2 µg/mL
[9]
  MIC: 100 µg/mL (≈ 155 µM)
[10]
  MIC: > 200 µg/mL
[11]
  MIC: 50 µg/mL (≈ 77.7 µM)
[12]
  MIC: 12.5 µg/mL (≈ 19.4 µM)
[13]
  MIC: > 200 µg/mL
[14]
  MIC: 50 µg/mL (≈ 77.7 µM)
[15]
  MIC: 6.25 µg/mL (≈ 9.71 µM)
[16]
  MIC: 25 µg/mL (≈ 38.8 µM)
